Literature values, collected in patent publication US4292313A, “LRF Antagonists” (The Salk Institute for Biological Studies, priority 1980, dated 1981).
[ ]: non-standard residue; d: D form. pGlu = O=C1CC[C@@H](C(=O)O)N1

Tested on: pituitary gland
Conditions: versus 6-Gly des-His2 analog

In the case of [pGlu]WSY[dA]LRPG-NH2, the “Potency as inhibitor of release of gonadotropins relative to the same peptide with Gly in the 6-position” value is listed as 3 times.
